Data published in article PMC8311653, “Design, Synthesis, In Vitro and In Vivo Characterization of Selective NKCC1 Inhibitors for the Treatment of Core Symptoms in Down Syndrome” (Journal of Medicinal Chemistry, 2021).

How the values were obtained:
Ts65Dn mice = experiment: T-maze test (short-term working memory); format: in vivo, mouse; conditions: ip 0.6 mg kg-1 daily, chronic (7-21 days)
Procedure: A veterinarian was employed to maintain the health and comfort of the animals. Mice were housed in filtered cages in a temperature-controlled room with a 12:12 h dark/light cycle and with ad libitum access to water and food. All efforts were made to minimize animal suffering and use the lowest possible number of animals required to produce statistical relevant results, according to the “3Rs concept”. In this study, we used Ts65Dn mice maintained in their original genetic background[57] by crossing (more than 40 times) Ts65Dn female to C57BL/6JEi × C3SnHeSnJ (B6EiC3) F1 males (Jackson Laboratories). Ts65Dn mice were genotyped by PCR as previously described.[58] Only males were used for behavioral experiments. Ts65Dn and controls were randomly assigned to vehicle groups (2% DMSO in saline), bumetanide (Sigma, 0.6 mg kg^–1 body weight), or 40 (0.6 mg kg^–1 body weight) and treated daily for ∼21 days by intraperitoneal injection (i.p.). On the day of behavioral testing, injection was performed 1 h before the task began.
Ts65Dn male mice (8–16 weeks old) were tested after 1 week of treatment with vehicle or 40 (0.6 mg kg^–1 i.p.). The battery of tests was run over a total period of ∼14 days (four behavioral tests with the following order Open Field, NOR, T-maze, and CFC). […] The tasks were video-recorded and then analyzed manually by a blind operator.

NKCC2 = biological target: T1, NKCC2 (Homo sapiens, UniProt Q13621); experiment: Cl- influx assay in NKCC2-transfected HEK293 cells; format: cell-based; conditions: 10 μM
T1 construct: host or cells: HEK293
T1 sequence (Q13621 1-1099): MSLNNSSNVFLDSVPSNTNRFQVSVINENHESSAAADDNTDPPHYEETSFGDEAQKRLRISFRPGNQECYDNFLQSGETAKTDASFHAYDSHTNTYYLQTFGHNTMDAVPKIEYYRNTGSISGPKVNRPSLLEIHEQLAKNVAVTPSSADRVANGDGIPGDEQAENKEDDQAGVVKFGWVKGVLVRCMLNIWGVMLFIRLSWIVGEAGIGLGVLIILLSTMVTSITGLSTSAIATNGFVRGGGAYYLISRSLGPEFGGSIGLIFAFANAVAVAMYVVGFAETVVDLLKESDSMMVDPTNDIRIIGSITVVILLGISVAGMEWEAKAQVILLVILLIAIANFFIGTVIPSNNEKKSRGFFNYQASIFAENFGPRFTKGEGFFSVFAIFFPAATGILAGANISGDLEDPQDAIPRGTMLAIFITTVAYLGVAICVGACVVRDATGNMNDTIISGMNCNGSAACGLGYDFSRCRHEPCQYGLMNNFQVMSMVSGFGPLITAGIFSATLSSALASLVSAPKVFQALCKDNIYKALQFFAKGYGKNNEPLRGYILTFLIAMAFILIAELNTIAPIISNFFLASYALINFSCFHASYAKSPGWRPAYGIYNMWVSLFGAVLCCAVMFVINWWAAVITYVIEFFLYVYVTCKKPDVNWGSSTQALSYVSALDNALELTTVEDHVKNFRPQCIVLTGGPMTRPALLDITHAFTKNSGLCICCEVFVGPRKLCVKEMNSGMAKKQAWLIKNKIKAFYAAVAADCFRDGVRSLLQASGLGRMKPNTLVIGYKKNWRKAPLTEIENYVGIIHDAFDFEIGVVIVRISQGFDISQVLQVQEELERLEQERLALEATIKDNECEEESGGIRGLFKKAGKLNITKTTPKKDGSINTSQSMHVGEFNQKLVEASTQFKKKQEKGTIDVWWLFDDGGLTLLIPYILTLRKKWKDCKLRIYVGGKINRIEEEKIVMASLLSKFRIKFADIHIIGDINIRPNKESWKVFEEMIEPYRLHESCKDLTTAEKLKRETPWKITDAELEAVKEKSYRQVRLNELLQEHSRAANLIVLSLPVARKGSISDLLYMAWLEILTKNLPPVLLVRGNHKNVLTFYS
Procedure: HEK293 cells were cultured in Dulbecco’s modified Eagle’s medium (DMEM) supplemented with 10% fetal bovine serum, 1% L-glutamine, 100 U/mL penicillin, and 100 μg/mL streptomycin and maintained at 37 °C in a 5% CO2 humidified atmosphere. […] To assess KCC2 activity (Tl influx assay), cells were transfected with 8 μg of KCC2[54] subcloned in the PRK5 plasmid or mock control (empty vector) and 16 μL of Lipofectamin 2000. After 4 h, the cells were collected and plated in 96-well black-walled, clear-bottomed plates at a density of 2.5 × 10^4. After 48 h, cells were used for the Cl^– or Tl influx assays. All reagents were purchased from Life Technologies, unless otherwise specified.
After 30 min of incubation, plates were loaded into a Victor 3V (PerkinElmer) multiplate reader equipped with an automatic liquid injector system, and fluorescence of Cl^–-sensitive mbYFPQS was recorded with excitation at 485 nm and emission at 535 nm. For each well, fluorescence was first recorded for 20 s of the baseline and for 60 s after delivery of a NaCl concentrated solution (74 mM final concentration in the assay well). Fluorescence of Cl^–-sensitive mbYFPQS is inversely correlated to the intracellular Cl^– concentration;[53] therefore, chloride influx into the cells determined a decrease in mbYFPQS fluorescence. […]

CN(C)S(=O)(=O)c1cc(C(=O)O)c(O)cc1NCCCCCCCC(F)(F)F [Compound 40, 5-(N,N-Dimethylsulfamoyl)-2-hydroxy-4-((8,8,8-trifluorooctyl)amino)benzoic Acid]
short-term working memory in the T-maze test (number of correct choices) (Ts65Dn mice): fully restored | inhibition of NKCC2 in the Cl- influx assay (NKCC2): did not show any significant inhibition
